Patent publication US7943641B2, “7-((1H-imidazol-4-yl)methyl)-5,6,7,8-tetrahydroquinoline” (Allergan, Inc., priority 2006, dated 2011)
pEC50: −log10 of the molar value. Counter-ions that a name gives are not always drawn.

Assays:
α2A adrenergic receptor = molecular target: T1, α2A adrenergic receptor (Homo sapiens, UniProt P08913); assay: RSAT (Receptor Selection and Amplification Technology) assay, α2A; assay type: cell-based; conditions: NIH-3T3 cells cotransfected with receptor and G protein
T1 construct: expressed in transfected cells; host or cells: NIH-3T3 cells
T1 sequence (P08913 1-465): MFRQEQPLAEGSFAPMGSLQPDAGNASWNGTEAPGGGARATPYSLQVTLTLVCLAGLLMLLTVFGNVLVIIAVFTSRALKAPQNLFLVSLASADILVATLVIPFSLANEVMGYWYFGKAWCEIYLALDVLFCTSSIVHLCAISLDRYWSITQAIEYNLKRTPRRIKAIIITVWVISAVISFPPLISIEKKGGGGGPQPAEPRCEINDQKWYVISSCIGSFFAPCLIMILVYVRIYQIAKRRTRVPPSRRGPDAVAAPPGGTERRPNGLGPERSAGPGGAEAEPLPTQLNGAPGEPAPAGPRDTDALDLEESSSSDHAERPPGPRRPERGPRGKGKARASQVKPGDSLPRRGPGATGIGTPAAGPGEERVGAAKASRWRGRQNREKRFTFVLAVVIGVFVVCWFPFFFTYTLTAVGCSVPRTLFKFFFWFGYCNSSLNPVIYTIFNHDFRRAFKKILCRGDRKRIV
Protocol: Incubations continue 72-96 hr at 37° C.

[1] = test system: IOP in the hypertensive eye; assay: Telemetry IOP model (telemetrized primate model); assay type: in vivo, Cynomolgus monkeys (macaca fascicularis)
Protocol: Cynomolgus (macaca fascicularis) monkeys weighing 3-5 kg with unilateral ocular hypertension in the right eye (OD) are used. Sustained elevated IOP is created by circumferential argon laser photocoagulation (Zeiss Visulas 532) of the mid-trabecular meshwork according to the method of Gaasterland and Kupfer (5). IOPs are assessed at T=−0.1, 0, 1, 2, 4, and 6, hours with an optional reading at 24 hours using an applanation pneumatonometer (Model 30 Classic, mentor Co). A drop of proparacaine (Allergan, Inc.) is instilled into the eyes just prior to IOP measurements. Monkeys are chaired and conditioned for tonometry for months before initiation of the study. Results are averaged from the 2 hr to the 6 hr time points (averages for each animal are calculated and the group mean determined) in an effort to simplify and standardize the data and include a comparison of sustained responses. Depending on the design of the study, either a paired or unpaired Student's t test is done. P<0.05 is considered significant.
Telemetry IOP model. Cynomolgus monkeys (3-5 kg) are made unilaterally ocular hypertensive by argon laser as noted above. The telemetry implant procedure is performed following elevation of IOP. Briefly, the scalp is prepared for aseptic surgery, followed by a 4 cm incision and tissue blunt-dissection to form a pocket in the underlying fascia to contain the pressure transducer. The catheter from the transducer is then guided subcutaneously to the orbit, and inserted into the vitreous cavity of the glaucoma eye through a small opening in the pars plana which is sutured closed and fixed with tissue adhesive. Receivers are placed into the animal cages and connected to a computer running Dataquest software for data capture. Animals are housed in a 12 hours light, 12 hours dark cycle: 6:00 AM ON, 6:00 PM OFF. Animals are used in drug studies following recovery from the surgical procedure which takes 2 weeks to 1 month. Dosing is done by transferring animals to restraining chairs. Animals are dosed without the aid of a sedative. […]

| Structure (SMILES) | pEC50 (α2A adrenergic receptor) | % IOP decrease from baseline in the hypertensive eye ([1]; dose 0.30%) | % IOP decrease from baseline in the hypertensive eye ([1]; dose 0.15%) |
| --- | --- | --- | --- |
| c1cnc2c(c1)CCC(Cc1c[nH]cn1)C2 (racemic) [racemic mixture, 7-(1H-Imidazol-4-ylmethyl)-5,6,7,8-tetrahydro-quinoline dihydrochloride] | 8.41 | 30% | – |
| c1cnc2c(c1)CCC(Cc1c[nH]cn1)C2 (single isomer, unassigned; (+)) [(+) enantiomer, (+)-7-(1H-imidazol-4-ylmethyl)-5,6,7,8-tetrahydro-quinoline dihydrochloride] | 8.54 | – | 30% |
| c1cnc2c(c1)CCC(Cc1c[nH]cn1)C2 (single isomer, unassigned; (-)) [(−) enantiomer, (−) 7-((1H-imidazol-4-yl)methyl)-5,6,7,8-tetrahydroquinoline] | 7.23 | 0% | – |
